The NIST ThermoML archive (doi:10.1016/j.fluid.2014.11.026)
“And” between values parts separate entries of the source, which are not always exact repeats. Equal values may be shown once.

Conditions: Closed cell (Static) method

C=CC(C)(O)CCC=C(C)C (stereo not drawn) [3,7-dimethyl-1,6-octadien-3-ol]
Liquid
Conditions | vapor or sublimation pressure
284.62 K | 0.006422 kPa
286.91 K | 0.008001 kPa
289.26 K | 0.01007 kPa
291.61 K | 0.01262 kPa
294.02 K | 0.01583 kPa
296.39 K | 0.01969 kPa and 0.01967 kPa
298.77 K | 0.0242 kPa
301.14 K | 0.02977 kPa
301.2 K | 0.02999 kPa
303.59 K | 0.03677 kPa
305.95 K | 0.04473 kPa
305.99 K | 0.04494 kPa
308.38 K | 0.05475 kPa
310.74 K | 0.0661 kPa
310.78 K | 0.06649 kPa
313.18 K | 0.08076 kPa
316.23 K | 0.1024 kPa
321.01 K | 0.1464 kPa
325.83 K | 0.2062 kPa
330.68 K | 0.2877 kPa
335.48 K | 0.394 kPa
340.29 K | 0.5345 kPa
342.71 K | 0.6231 kPa
345.69 K | 0.7489 kPa
348.12 K | 0.8693 kPa
350.51 K | 0.9921 kPa
352.9 K | 1.136 kPa

CCCCC(=O)CCCC [5-nonanone]
Liquid
Conditions | vapor or sublimation pressure [kPa]
283.83 K | 0.02528
283.85 K | 0.02535
286.19 K | 0.03083
288.55 K | 0.03722
290.9 K | 0.04494
293.32 K | 0.05439
293.35 K | 0.0544
295.75 K | 0.06539
298.1 K | 0.07793
298.12 K | 0.0783
300.56 K | 0.09349
302.92 K | 0.1107
302.94 K | 0.111
305.38 K | 0.1321
307.75 K | 0.1553
307.77 K | 0.1559
310.19 K | 0.1839
312.99 K | 0.2228
313.02 K | 0.2225
315 K | 0.2527
315.38 K | 0.2591
317.8 K | 0.3037
317.81 K | 0.3041
320.16 K | 0.3527
320.18 K | 0.3545
322.58 K | 0.4099
322.62 K | 0.4118
324.99 K | 0.476
325.05 K | 0.4746
327.44 K | 0.5474
327.49 K | 0.5494
329.9 K | 0.6318
329.95 K | 0.638
332.32 K | 0.7257
332.35 K | 0.7296
334.71 K | 0.8311
334.74 K | 0.8375
337.13 K | 0.9562
337.15 K | 0.9511

CC(=O)CCC=C(C)C [6-methyl-5-hepten-2-one]
Liquid
Conditions | vapor or sublimation pressure
283.85 K | 0.05465 kPa
283.86 K | 0.05482 kPa and 0.05462 kPa
283.92 K | 0.05498 kPa
286.18 K | 0.06551 kPa
286.23 K | 0.06608 kPa
286.24 K | 0.06599 kPa
288.57 K | 0.07931 kPa
288.59 K | 0.07922 kPa
288.61 K | 0.07945 kPa
288.69 K | 0.07994 kPa
290.97 K | 0.09477 kPa
291 K | 0.09535 kPa
291.02 K | 0.09517 kPa
293.47 K | 0.1142 kPa
293.49 K | 0.1148 kPa
295.81 K | 0.1358 kPa
295.85 K | 0.1362 kPa
295.88 K | 0.1365 kPa
298.28 K | 0.1619 kPa
298.31 K | 0.1623 kPa
300.61 K | 0.1903 kPa
300.65 K | 0.1915 kPa
300.69 K | 0.1919 kPa
303.12 K | 0.2264 kPa
303.15 K | 0.2273 kPa
305.45 K | 0.2654 kPa
305.48 K | 0.2664 kPa
305.54 K | 0.2673 kPa
307.99 K | 0.3137 kPa
308.02 K | 0.3147 kPa
310.3 K | 0.3637 kPa
310.36 K | 0.3668 kPa
310.42 K | 0.3665 kPa
312.88 K | 0.4306 kPa
312.9 K | 0.4306 kPa
315.16 K | 0.4939 kPa
315.23 K | 0.4983 kPa
315.28 K | 0.4979 kPa
317.72 K | 0.5789 kPa
317.75 K | 0.5801 kPa
320.01 K | 0.6665 kPa
320.07 K | 0.6684 kPa
320.13 K | 0.6684 kPa
322.5 K | 0.769 kPa
322.52 K | 0.7718 kPa
322.56 K | 0.7724 kPa
324.84 K | 0.8831 kPa
324.89 K | 0.8852 kPa
324.93 K | 0.8864 kPa
327.28 K | 1.015 kPa
327.32 K | 1.015 kPa
327.36 K | 1.016 kPa

O=C(O)c1ccccc1 [benzoic acid]
Crystal
Conditions | vapor or sublimation pressure [kPa]
297.67 K | 0.000108
299.96 K | 0.000142
300.03 K | 0.000143
302.51 K | 0.000193
304.75 K | 0.00025
307.27 K | 0.000335
309.63 K | 0.000436
312.08 K | 0.000573
314.4 K | 0.000738
314.59 K | 0.000754
316.91 K | 0.000969
319.48 K | 0.00127
321.91 K | 0.001641
324.39 K | 0.002118
326.76 K | 0.002676
329.2 K | 0.003432
331.62 K | 0.004361
334.07 K | 0.005542
336.46 K | 0.006934
338.98 K | 0.008733

O=C(c1ccccc1)c1ccccc1 [benzophenone]
Conditions | vapor or sublimation pressure [kPa]
300.37 K, Crystal | 0.000119
302.88 K, Crystal | 0.000161
302.91 K, Liquid | 0.000237
305.39 K, Crystal | 0.00022
305.41 K, Liquid | 0.000306
307.9 K, Crystal | 0.000302
307.91 K, Liquid | 0.000394
310.26 K, Crystal | 0.000401
310.41 K, Liquid | 0.000503
312.75 K, Crystal | 0.000535
315.24 K, Crystal | 0.000708
317.73 K, Crystal | 0.000939
318.01 K, Liquid | 0.001028
320.23 K, Crystal | 0.001239
320.51 K, Liquid | 0.001288
323.09 K, Liquid | 0.001615
325.59 K, Liquid | 0.002005
328.11 K, Liquid | 0.002469
330.61 K, Liquid | 0.003064
333.13 K, Liquid | 0.003771
335.64 K, Liquid | 0.00461
338.16 K, Liquid | 0.005616
340.68 K, Liquid | 0.006814
343.21 K, Liquid | 0.008284
345.73 K, Liquid | 0.009949
348.24 K, Liquid | 0.01196
350.76 K, Liquid | 0.01435
353.28 K, Liquid | 0.01704
355.79 K, Liquid | 0.02035
358.31 K, Liquid | 0.02415
360.82 K, Liquid | 0.02859
363.34 K, Liquid | 0.03356
368.37 K, Liquid | 0.04652
370.89 K, Liquid | 0.0543

[CH]1C=CC=C1.[CH]1C=CC=C1.[Fe] [ferrocene]
Crystal
Conditions | vapor or sublimation pressure [kPa]
280.91 K | 0.000154
282.03 K | 0.000176
283.33 K | 0.000202
284.44 K | 0.000229
285.74 K | 0.000264
286.87 K | 0.000298
288.14 K | 0.000344
289.31 K | 0.000388
290.59 K | 0.000447
291.71 K | 0.000501
293.03 K | 0.000576
294.12 K | 0.000646
295.42 K | 0.000741
296.52 K | 0.000829
297.8 K | 0.000942
297.83 K | 0.000947
300.23 K | 0.001197
300.35 K | 0.001218
302.84 K | 0.001542
304.06 K | 0.001742
304.13 K | 0.001753
305.54 K | 0.002007
307.9 K | 0.002499
311.31 K | 0.003428
312.99 K | 0.00399
315.35 K | 0.004949
316.48 K | 0.005493
317.93 K | 0.006236
319.06 K | 0.006868
320.29 K | 0.007672
320.95 K | 0.008091
321.69 K | 0.008661
322.63 K | 0.00937
324 K | 0.01056
325.29 K | 0.01176
325.31 K | 0.0117
327.79 K | 0.01447
330.22 K | 0.01764
331.21 K | 0.01908
332.72 K | 0.0215
335.15 K | 0.02616
336.4 K | 0.02867
337.89 K | 0.03234
340.33 K | 0.03875
341.35 K | 0.04176
342.83 K | 0.04685
345.27 K | 0.05631
346.28 K | 0.06042
347.77 K | 0.06739
350.23 K | 0.08052
351.2 K | 0.08649
352.7 K | 0.09579
355.17 K | 0.1142
357.88 K | 0.1377
360.37 K | 0.1622
362.8 K | 0.1914
365.3 K | 0.2244
367.75 K | 0.2639
370.2 K | 0.3093
372.93 K | 0.3682
375.4 K | 0.425
377.87 K | 0.4978
380.32 K | 0.5748
382.8 K | 0.6695
385.27 K | 0.7725
387.75 K | 0.8978
390.22 K | 1.03
392.69 K | 1.185

c1ccc2ccccc2c1 [naphthalene]
Crystal
Conditions | vapor or sublimation pressure [kPa]
297.72 K | 0.01042
300.06 K | 0.0131
302.47 K | 0.01651
304.88 K | 0.02077
307.27 K | 0.02598
309.69 K | 0.03247
312.35 K | 0.04107
314.78 K | 0.05102
317.21 K | 0.06281
319.66 K | 0.0774
322.08 K | 0.0949
324.51 K | 0.1161
326.97 K | 0.1415
